Test results published in ChEMBL document CHEMBL4619815, “Hitting a Moving Target: Simulation and Crystallography Study of ATAD2 Bromodomain Blockers” (ACS Med Chem Lett, 2020).

Key:
[1] = target: T1, ATPase family AAA domain-containing protein 2 (Homo sapiens, UniProt Q6PL18); test: Inhibition of recombinant human N-terminal GST-tagged ATAD2 bromodomain (981 to 1146 residues) expressed in Escherichia coli using biotinylated peptide SGRGK(Ac)GGKGLGKGGAKRHRKVLRDNGSGS as substrate incubated for 3 hrs by TR-FRET assay
T1 sequence (Q6PL18 whole entry): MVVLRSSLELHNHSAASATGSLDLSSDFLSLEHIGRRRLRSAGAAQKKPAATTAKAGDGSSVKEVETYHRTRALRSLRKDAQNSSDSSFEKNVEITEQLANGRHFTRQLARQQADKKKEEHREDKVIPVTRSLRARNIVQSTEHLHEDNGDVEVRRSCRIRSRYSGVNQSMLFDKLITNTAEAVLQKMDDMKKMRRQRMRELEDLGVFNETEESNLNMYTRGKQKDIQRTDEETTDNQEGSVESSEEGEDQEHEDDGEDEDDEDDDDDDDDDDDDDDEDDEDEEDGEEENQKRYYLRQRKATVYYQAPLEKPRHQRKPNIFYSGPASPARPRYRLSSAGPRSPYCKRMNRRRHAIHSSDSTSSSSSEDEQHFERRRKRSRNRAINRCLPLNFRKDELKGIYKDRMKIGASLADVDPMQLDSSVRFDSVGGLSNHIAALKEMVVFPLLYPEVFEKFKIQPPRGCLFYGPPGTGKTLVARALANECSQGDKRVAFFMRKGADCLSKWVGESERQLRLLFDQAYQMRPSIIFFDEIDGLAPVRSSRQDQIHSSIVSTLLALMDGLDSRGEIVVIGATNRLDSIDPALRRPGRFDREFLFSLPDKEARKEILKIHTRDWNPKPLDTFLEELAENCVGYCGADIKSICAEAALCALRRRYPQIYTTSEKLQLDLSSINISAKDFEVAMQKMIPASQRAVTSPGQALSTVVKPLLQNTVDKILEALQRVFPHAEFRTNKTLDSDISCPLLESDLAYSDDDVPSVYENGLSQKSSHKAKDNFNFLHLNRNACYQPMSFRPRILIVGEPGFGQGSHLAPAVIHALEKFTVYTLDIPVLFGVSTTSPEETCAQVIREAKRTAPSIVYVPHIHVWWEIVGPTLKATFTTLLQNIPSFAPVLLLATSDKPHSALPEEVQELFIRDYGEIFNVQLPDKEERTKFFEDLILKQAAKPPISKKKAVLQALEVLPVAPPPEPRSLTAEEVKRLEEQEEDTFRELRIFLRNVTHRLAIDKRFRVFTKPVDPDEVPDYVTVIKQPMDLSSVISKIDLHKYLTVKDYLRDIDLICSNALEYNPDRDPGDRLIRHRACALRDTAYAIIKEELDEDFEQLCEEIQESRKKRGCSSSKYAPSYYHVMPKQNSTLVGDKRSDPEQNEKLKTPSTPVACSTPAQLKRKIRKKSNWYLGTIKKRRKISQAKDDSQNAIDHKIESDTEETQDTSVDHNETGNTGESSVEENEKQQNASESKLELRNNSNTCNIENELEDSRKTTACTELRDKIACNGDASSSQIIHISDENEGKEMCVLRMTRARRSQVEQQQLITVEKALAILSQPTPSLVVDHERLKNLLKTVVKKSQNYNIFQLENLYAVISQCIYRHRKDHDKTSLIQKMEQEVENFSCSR

[2] = target: T1, ATPase family AAA domain-containing protein 2; test: Binding affinity to recombinant human N-terminal GST-tagged ATAD2 bromodomain (981 to 1146 residues) expressed in Escherichia coli at 10 degree C by isothermal titration calorimetry

| Structure (SMILES) | IC50 [1] | Kd [2] |
| --- | --- | --- |
| COc1cccc(-c2sc(NC(=O)[C@@H](C)N)nc2C(C)=O)c1 | > 150 µM |  |
| CC(=O)c1csc(NC(=O)[C@H]2CNCCN2CCC2CCC(F)(F)CC2)n1 | 15 µM | 25 µM |
| CC(=O)c1nc(NC(=O)[C@@H](C)N)sc1-c1cccc(N)c1 | > 150 µM |  |
| CC(=O)c1nc(NC(=O)[C@H]2CNCCN2CCC2CCC(F)(F)CC2)sc1-c1cncc(N)c1 | > 150 µM |  |
| C[C@@H](N)C(=O)Nc1nc2c(s1)CCCC2=O | > 150 µM |  |
| CC(=O)c1csc(NC(=O)[C@@H](C)NC(=N)N)n1 | 140 µM |  |
| CC(=O)c1nc(NC(=O)[C@@H](C)N)sc1-c1cccc(O)c1 | > 150 µM |  |
| CC(=O)c1nc(NC(=O)[C@H]2CNCCN2)sc1-c1ccc(N2CCCC2=O)cc1 | > 150 µM |  |
| CC(=O)c1nc(NC(=O)[C@@H](C)N)sc1-c1cncc(N)c1 | > 150 µM |  |
| CC(=O)c1nc(NC(=O)[C@@H](C)NC(=N)N)sc1-c1cncc(N)c1 | > 150 µM |  |
| CC(=O)c1nc(NC(=O)C(C)(C)N)sc1-c1cncc(N)c1 | > 150 µM |  |
| CC(=O)c1nc(NC(=O)C2(N)CCC2)sc1-c1cncc(N)c1 | 80 µM |  |
| CC(=O)c1nc(NC(=O)[C@H]2CNCCN2)sc1-c1ccc(C(=O)N2CCOCC2)cc1 | > 150 µM |  |
| CC(=O)c1nc(NC(=O)[C@H]2CNCCN2)sc1-c1cncc(N)c1 | > 150 µM |  |
| CC(=O)c1nc(NC(=O)[C@@H](C)N)sc1-c1cccnc1 | 95 µM |  |
| CC(=O)c1csc(NC(=O)[C@@H](C)N)n1 | 336 µM |  |
| CC(=O)c1csc(NC(=O)[C@H]2CNCCN2)n1 | > 150 µM |  |
| CC(=O)c1csc(NC(=O)C(C)(C)N)n1 | > 150 µM |  |
